The values that follow come from PubChem BioAssay AID248 (DTP/NCI, 2004).

This test has as its system L1210 leukemia ip in BDF1 mice, survival T/C. Briefly: NCI In Vivo Anticancer Drug Screen. Data for tumor model L1210 Leukemia (intraperitoneal) in B6D2F1 (BDF1) mice. To be noted: endpoint: mean survival time, higher = longer survival. The procedure, abridged:
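Transplanted-tumor mice were given test agent; controls received vehicle only. Survival readings from the two groups were divided (treated over control).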

Setting [1] is: dose: 100.0 mg/kg/injection, schedule: Q01DX001 (ip), vehicle: carboxymethylcellulose (CMC).
Where [2] appears, read: dose: 50.0 mg/kg/injection, schedule: Q01DX009 (ip), vehicle: Klucel (hydroxypropylcellulose) (HPC).
The mark [3] stands for this setting: dose: 100.0 mg/kg/injection, schedule: Q01DX009 (ip), vehicle: Klucel (hydroxypropylcellulose) (HPC).
[4] abbreviates: dose: 100.0 mg/kg/injection, schedule: Q04DX003 (ip), vehicle: Klucel (hydroxypropylcellulose) (HPC).
Setting [5] is: dose: 200.0 mg/kg/injection, schedule: Q01DX009 (ip), vehicle: Klucel (hydroxypropylcellulose) (HPC).
Where [6] appears, read: dose: 200.0 mg/kg/injection, schedule: Q04DX003 (ip), vehicle: Klucel (hydroxypropylcellulose) (HPC).
The mark [7] stands for this setting: dose: 400.0 mg/kg/injection, schedule: Q04DX003 (ip), vehicle: Klucel (hydroxypropylcellulose) (HPC).
Where [8] appears, read: dose: 100.0 mg/kg/injection, schedule: Q04DX003 (ip), vehicle: saline with Tween-80.
[9] abbreviates: dose: 200.0 mg/kg/injection, schedule: Q04DX003 (ip), vehicle: saline with Tween-80.
[10] abbreviates: dose: 400.0 mg/kg/injection, schedule: Q04DX003 (ip), vehicle: saline with Tween-80.
Where [11] appears, read: dose: 100.0 mg/kg/injection, schedule: Q04DX003 (ip), vehicle: saline.
The mark [12] stands for this setting: dose: 200.0 mg/kg/injection, schedule: Q04DX003 (ip), vehicle: saline.
Setting [13] is: dose: 400.0 mg/kg/injection, schedule: Q04DX003 (ip), vehicle: saline.
Where [14] appears, read: dose: 100.0 mg/kg/injection, schedule: Q04DX002 (ip), vehicle: Klucel (hydroxypropylcellulose) (HPC).
Setting [15] is: dose: 200.0 mg/kg/injection, schedule: Q04DX002 (ip), vehicle: Klucel (hydroxypropylcellulose) (HPC).
Setting [16] is: dose: 400.0 mg/kg/injection, schedule: Q04DX002 (ip), vehicle: Klucel (hydroxypropylcellulose) (HPC).
Setting [17] is: dose: 100.0 mg/kg/injection, schedule: Q01DX009 (ip), vehicle: saline.
[18] abbreviates: dose: 400.0 mg/kg/injection, schedule: Q01DX009 (ip), vehicle: Klucel (hydroxypropylcellulose) (HPC).

Several values for one entry are separate records, joined by “and”; a condition that tells them apart may be missing. Equal values may be shown once. Inconclusive results and toxic doses are left out.

Regarding `C=CCSc1ncnc2c1ncn2C1OC(CO)C(O)C1O` (stereo not drawn), the T/C (dose: 25.0 mg/kg/injection, schedule: Q01DX Z (ip), vehicle: saline) was 109 % of control and 120 % of control; the T/C (dose: 30.0 mg/kg/injection, schedule: Q01DX Z (ip), vehicle: saline) is 106 % of control; the T/C (dose: 45.0 mg/kg/injection, schedule: Q01DX Z (ip), vehicle: saline) was 108 % of control; the T/C (dose: 78.0 mg/kg/injection, schedule: Q01DX001 (ip), vehicle: carboxymethylcellulose (CMC)) is 112 % of control; the T/C (dose: 99.0 mg/kg/injection, schedule: Q01DX Z (ip), vehicle: saline) is 162 % of control; the T/C under setting [1] was 115 % of control. For the same compound, the T/C reads like this: (dose: 100.0 mg/kg/injection, schedule: Q01DX Z (ip), vehicle: saline) 166 % of control; (dose: 118.0 mg/kg/injection, schedule: Q01DX001 (ip), vehicle: carboxymethylcellulose (CMC)) 123 % of control; (dose: 151.0 mg/kg/injection, schedule: Q01DX Z (ip), vehicle: saline) 170 % of control and 181 % of control; (dose: 200.0 mg/kg/injection, schedule: Q01DX009 (ip), vehicle: carboxymethylcellulose (CMC)) 93 % of control; (dose: 200.0 mg/kg/injection, schedule: Q01DX Z (ip), vehicle: saline) 150 % of control; (dose: 266.0 mg/kg/injection, schedule: Q01DX001 (ip), vehicle: carboxymethylcellulose (CMC)) 150 % of control. Besides, the T/C is 96 % of control (dose: 300.0 mg/kg/injection, schedule: Q01DX Z (ip), vehicle: saline) and 111 % of control (dose: 338.0 mg/kg/injection, schedule: Q01DX Z (ip), vehicle: saline).
For `CCc1cccc(OC/C=C(\C)CC/C=C(\C)CCC2OC2(C)C)c1` (stereo not drawn), the T/C is, setting by setting: (dose: 100.0 mg/kg/injection, schedule: Q04DX002 (ip), vehicle: saline with Tween-80) 103 % of control; (dose: 200.0 mg/kg/injection, schedule: Q04DX002 (ip), vehicle: saline with Tween-80) 97 % of control; (dose: 400.0 mg/kg/injection, schedule: Q04DX002 (ip), vehicle: saline with Tween-80) 100 % of control.
In the case of `CC(=O)C1C=NCCN=CC(C(C)=O)C(C)=NCCCN=C1C.[Ni]` (stereo not drawn), the T/C runs as follows: under setting [2], 101 % of control; under setting [3], 105 % of control; under setting [4], 100 % of control; under setting [5], 103 % of control; under setting [6], 95 % of control; under setting [7], 106 % of control.
Consider `O=C(O)c1ccc(Nc2ncnc3nc[nH]c23)cc1`, for which the T/C runs as follows: under setting [8], 104 % of control; under setting [9], 96 % of control; under setting [10], 102 % of control.
On to `CC(C)CC[n+]1cccc(C(N)=O)c1`, for which the T/C was 100 % of control under setting [11], 110 % of control under setting [12] and 113 % of control under setting [13].
On to `O=C1CCCC/C1=C/c1ccco1`, for which the T/C under setting [14] is 95 % of control, the T/C under setting [15] was 99 % of control and the T/C under setting [16] was 99 % of control.
For `CCCCCCCCCC(=O)Nc1ccc(C)cc1C`, the T/C by setting is: under setting [14], 97 % of control; under setting [15], 101 % of control; under setting [16], 90 % of control.
`OC1C(O)C(O)C(O)C(O)C1O` (stereo not drawn): the T/C was 97 % of control under setting [17]; 104 % of control under setting [8]; 98 % of control under setting [11]; 92 % of control (dose: 200.0 mg/kg/injection, schedule: Q01DX009 (ip), vehicle: saline); 98 % of control under setting [9]; 98 % of control under setting [12]. The T/C is, setting by setting: (dose: 375.0 mg/kg/injection, schedule: Q01DX001 (ip), vehicle: carboxymethylcellulose (CMC)) 100 % of control; (dose: 400.0 mg/kg/injection, schedule: Q01DX009 (ip), vehicle: saline) 97 % of control; under setting [10], 98 % of control; under setting [13], 107 % of control; (dose: 750.0 mg/kg/injection, schedule: Q01DX001 (ip), vehicle: carboxymethylcellulose (CMC)) 98 % of control; (dose: 1500.0 mg/kg/injection, schedule: Q01DX001 (ip), vehicle: carboxymethylcellulose (CMC)) 98 % of control.
As for `CCc1ccc(NC(=O)Nc2cccc3ccccc23)cc1`, the T/C is 87 % of control under setting [3]; 98 % of control under setting [4]; 90 % of control under setting [5]; 90 % of control under setting [6]; 92 % of control under setting [18]; 96 % of control under setting [7].
As for `Nc1n[nH]c(N)n1.[Pt]`, the T/C is, setting by setting: (dose: 50.0 mg/kg/injection, schedule: Q01DX009 (ip), vehicle: saline) 102 % of control; (dose: 50.0 mg/kg/injection, schedule: Q04DX003 (ip), vehicle: saline) 97 % of control; under setting [17], 102 % of control; under setting [11], 102 % of control; under setting [12], 100 % of control.
Regarding `CN(C)C(=O)C1(c2ccc(Cl)cc2)CCN(CCCC(=O)c2ccc(F)cc2)CC1`, the T/C is, setting by setting: (dose: 12.5 mg/kg/injection, schedule: Q01DX009 (ip), vehicle: Klucel (hydroxypropylcellulose) (HPC)) 94 % of control; (dose: 25.0 mg/kg/injection, schedule: Q01DX009 (ip), vehicle: Klucel (hydroxypropylcellulose) (HPC)) 94 % of control; (dose: 25.0 mg/kg/injection, schedule: Q04DX003 (ip), vehicle: Klucel (hydroxypropylcellulose) (HPC)) 121 % of control; under setting [2], 100 % of control; (dose: 50.0 mg/kg/injection, schedule: Q04DX003 (ip), vehicle: Klucel (hydroxypropylcellulose) (HPC)) 106 % of control; under setting [3], 111 % of control. Besides, the T/C reads like this: under setting [4], 116 % of control; under setting [5], 96 % of control; under setting [6], 116 % of control.
Turning to `O=[N+]([O-])c1ccccc1N=N/C(Cc1ccccc1)=N\Nc1ccccc1`, the T/C is 92 % of control under setting [2]; 92 % of control under setting [3]; 89 % of control under setting [4]; 93 % of control under setting [5]; 94 % of control under setting [18]; 92 % of control under setting [7].
As to `Cc1ccc(C)c(C(=O)CCCCl)c1`, the T/C under setting [8] is 98 % of control.
Turning to `O=C(O)c1ccc(NCO)cc1`, the T/C is 94 % of control (dose: 100.0 mg/kg/injection, schedule: Q04DX003 (ip), vehicle: acetone); 102 % of control (dose: 200.0 mg/kg/injection, schedule: Q04DX003 (ip), vehicle: acetone); 108 % of control (dose: 400.0 mg/kg/injection, schedule: Q04DX003 (ip), vehicle: acetone).
`NC(=S)N/N=C/c1cc(Cl)ccc1O`: the T/C under setting [1] is 94 % of control; the T/C (dose: 200.0 mg/kg/injection, schedule: Q01DX001 (ip), vehicle: carboxymethylcellulose (CMC)) was 100 % of control; the T/C (dose: 400.0 mg/kg/injection, schedule: Q01DX001 (ip), vehicle: carboxymethylcellulose (CMC)) is 96 % of control.
As for `Cc1ccc(C(=O)/C=C/c2ccc3c(c2)OCO3)c(C)c1`, the T/C runs as follows: (dose: 100.0 mg/kg/injection, schedule: Q04DX002 (ip), vehicle: DMSO) 103 % of control; (dose: 200.0 mg/kg/injection, schedule: Q04DX002 (ip), vehicle: DMSO) 93 % of control; (dose: 400.0 mg/kg/injection, schedule: Q04DX002 (ip), vehicle: DMSO) 103 % of control.
